According to patent US20070142462A1, “Method of Treating Cancer” (The University of Utah, priority 2000, published 2007):

Key:
Assay type in all cases: cell-based, human
[1] = tested on: phosphorylated IκBα (IκBα-P); experiment: Immunoassay for phosphorylated IκBα; conditions: M1619; catalase 3,000 U/ml for 24 hours
Description: The effect of antioxidants on expression of cell cyclins, cyclin-associated kinases, cell cycle inhibitors and IκBα was studied by incubating near confluent cell cultures with antioxidant treatments for 15 min-48 hours. Cells were lysed and protein levels were measured by immunoblot assay as described below. In other experiments, the ratio of phosphorylated-IκBα to total IκBα was determined by harvest of cytosolic protein 24 hours after treating cultures with 3,000 U/ml catalase.
The NF-κB inhibitor IκBα and phosphorylated IκBα were assayed with several modifications of the above procedure. Cells were lysed in boiling buffer to which 50 mM DTT had been added as a reducing agent. Immunoassay of IκBα. proceeded as above, but samples for measurement of phosphorylated IκBα were blocked 2 hours at room temperature and incubated overnight at 4° C. with primary phospho-specific antibodies diluted 1:1000 in PBS with 0.1% Tween and 5% BSA.
M1619 cells either treated with catalase with 3,000 U/ml for 24 hours or untreated were used in immunoassays for phosphorylated IκBα (IκBα-P) using phospho-specific antibody as described above.
Mean ratios of the densitometrically determined sum intensities of IκBα-P staining in the immunoassay experiments are shown in FIG. 5B.

M1619 melanoma cells = experiment: MTT proliferation assay, M1619 melanoma
Description: Measurement of Proliferation in Cell Cultures. Proliferation of cultured cells was quantitated using a previously reported calorimetric method based upon metabolic reduction of the soluble yellow tetrazolium dye 3-[4,5-dimethylthiazol]-2yl-2,5-diphenyl tetrazolium bromide (MTT) to its insoluble purple formazan by the action of mitochondrial succinyl dehydrogenase. […] This assay empirically distinguishes between dead and living cells. For proliferation studies, cells were seeded into 24-well uncoated plastic plates (Costar) at 15,000-50,000 cells per well and cultured with respective media and mitogens. After 24-96 hours, medium was removed, cells were washed twice with 1 ml of sterile Dulbecco's modified phosphate buffered saline without Ca^2+ or Mg^2+ (DPBS), the medium was replaced with 1 ml/well fresh medium containing 100 μg/ml MTT, and plates were incubated an additional hour. MTT-containing medium was removed, 0.5 ml dimethylsulfoxide (DMSO) was added to each well, and the absorbance of the solubilized purple formazan dye was measured at 540 nm. A total of 4-6 wells was studied at each treatment condition. Preliminary studies were performed with 50-200 μg/ml MTT incubated for 15 min to 3 hours to determine the optimum concentration and incubation time at which the rate of conversion was linear and proportional to the number of cells present.
Cell Culture Treatments. The effect of antioxidant treatments on proliferation of malignant cell lines was studied in cultures stimulated with 10% FBS. Cell numbers were quantitated by the MTT assay 24-72 hours later. In some experiments, antioxidants were added immediately after cells were plated. In other experiments, cells were plated and allowed to grow for 24 hours before fresh media with antioxidants was added, and cell numbers were studied by the MTT assay 48 hours later.
A. M1619 melanoma cells stimulated with 10% fetal bovine serum (FBS) were plated at a density of 50,000 cells per well and antioxidants were added to wells at the indicated concentrations (mM or U/ml). After 48 hours, proliferation was quantitated by assessing the cell number-dependent reduction of the soluble yellow tetrazolium dye 3-[4,5-dimethylthiazol]-2yl-2,5-diphenyl tetrazolium bromide (MTT) to its insoluble formazan, measured as the absorbance at 540 nm (A540). The antioxidants tested included no antioxidant (control, i.e., FBS alone), 1000 U/ml SOD, 20 mM NAC, 500 U/ml, 1000 U/ml, and 3000 U/ml of catalase, and boiled […] catalase.
B. In a separate experiment, 2 μl/well of DMSO (served as control), 5 μM, 10 μM, and 25 μM Ebselen were tested on M1619 melanoma cells as described above, except that the cells were cultured for 72 hours before proliferation was measured.
C. 3000 U/ml Catalase, 2 μl/well DMSO, 25 μM Ebselen, and 50 μM Ebselen were tested as described above except that the compounds were added 24 hours after M1619 cells were plated. After the addition of antioxidants, the cells were incubated for an additional 48 hours and cell proliferation was quantitated. […]

M1619 cells = experiment: DNA cell cycle analysis by flow cytometry; conditions: 3,000 U/ml catalase, 24 hours
Description: DNA Cell Cycle Measurements. To study the effect of antioxidant treatments on the DNA cell cycle, cells were grown to near confluence in 25 cm^2 plastic flasks and treated for 24 hours. Cells were typsinized, washed twice in cold DPBS with 1 mM EDTA and 1% bovine serum albumin (BSA), fixed 30 min in ice-cold 70% ethanol, and stained by incubation for 30 min at 37° C. in a 10 μg/ml solution of propidium iodide in DPBS and 1 mg/ml RNase A. DNA cell cycle measurements were made using a FACStar^PLUS Flow Cytometer (Becton-Dickenson, San Jose, Calif.).
Near confluent monolayers of M1619 cells were incubated in RPMI 1640 and 10% FBS in the presence or absence of 3,000 U/ml catalase. After 24 hours, cells were harvested, ethanol-fixed, permeabilized with proteinase K, stained with propidium iodide and subjected to DNA cell cycle analysis. Whereas a large fraction (30.2%) of untreated cells (FIG. 6A) were tetraploid, only 12.8% of catalase-treated cells (FIG. 6B) were tetraploid. […] G2-M was hidden by tetraploid G0-G1 or by debris and could not be analyzed.

NF-κB = experiment: EMSA of constitutive nuclear NF-κB DNA binding, M1619; conditions: 24 hours, catalase 3,000 U/ml, NAC 20 mM, Ebselen 25 μM, dicumarol 250 μM
From the text: Electrophoretic Mobility Shift Assays (EMSAs). […] J. Respir.

Substance: Catalase
- amount of IκBα that is phosphorylated [1]: decreases
- Proliferation of M1619 melanoma cells (MTT, A540) (M1619 melanoma cells; 10% FBS, agents added at plating, 48 hours (ebselen 72 hours)): reduced proliferation
- Proliferation of M1619 melanoma cells, agents added 24 hours after plating (M1619 melanoma cells; catalase 3000 U/ml, Ebselen 25 and 50 μM, further 48 hours): antiproliferative
- fraction of cells tetraploid (M1619 cells; untreated 30.2%): 12.8%
- total percentage of cells in S-phase (M1619 cells; untreated 41.2%): 56.7%
- constitutive NF-κB DNA binding activity in nuclear protein (NF-κB): substantially reduced
